Reference: ChEMBL document CHEMBL2406999, “Vialinin A is a ubiquitin-specific peptidase inhibitor” (Bioorg Med Chem Lett, 2013)
Substitutions are numbered along the chain they refer to. Calls of active or inactive are those of the source. The rule behind the calls is not given here.

Key:
[1] = target: T1, Ubiquitin carboxyl-terminal hydrolase 2 (Homo sapiens) (UniProt O75604); test: Inhibition of human USP2 using Ub-AMC as substrate at 1 to 30 uM after 60 mins by fluorometric analysis
T1 sequence (whole entry): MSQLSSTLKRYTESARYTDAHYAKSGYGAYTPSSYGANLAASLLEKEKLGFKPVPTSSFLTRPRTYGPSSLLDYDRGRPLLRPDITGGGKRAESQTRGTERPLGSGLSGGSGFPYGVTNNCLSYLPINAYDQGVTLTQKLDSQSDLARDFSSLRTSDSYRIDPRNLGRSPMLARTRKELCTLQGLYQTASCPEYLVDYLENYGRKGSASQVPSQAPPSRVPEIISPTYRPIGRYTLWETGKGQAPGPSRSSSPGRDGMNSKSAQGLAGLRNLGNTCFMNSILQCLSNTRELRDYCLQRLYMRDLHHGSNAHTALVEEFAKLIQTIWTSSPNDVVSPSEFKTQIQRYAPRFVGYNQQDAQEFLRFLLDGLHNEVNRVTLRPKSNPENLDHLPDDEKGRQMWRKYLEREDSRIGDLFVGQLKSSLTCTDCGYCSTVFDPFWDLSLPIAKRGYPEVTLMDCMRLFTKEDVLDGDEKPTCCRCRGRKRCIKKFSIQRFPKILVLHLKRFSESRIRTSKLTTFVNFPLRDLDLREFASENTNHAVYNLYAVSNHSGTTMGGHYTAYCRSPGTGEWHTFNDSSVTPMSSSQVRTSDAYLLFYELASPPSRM

[2] = target: T2, Ubiquitin carboxyl-terminal hydrolase 5 (Homo sapiens, UniProt P45974); test: Competitive inhibition of wild type human USP5 expressed in Escherichia coli BL21(DE3) using Ub-AMC as substrate
T2 sequence (P45974 whole entry): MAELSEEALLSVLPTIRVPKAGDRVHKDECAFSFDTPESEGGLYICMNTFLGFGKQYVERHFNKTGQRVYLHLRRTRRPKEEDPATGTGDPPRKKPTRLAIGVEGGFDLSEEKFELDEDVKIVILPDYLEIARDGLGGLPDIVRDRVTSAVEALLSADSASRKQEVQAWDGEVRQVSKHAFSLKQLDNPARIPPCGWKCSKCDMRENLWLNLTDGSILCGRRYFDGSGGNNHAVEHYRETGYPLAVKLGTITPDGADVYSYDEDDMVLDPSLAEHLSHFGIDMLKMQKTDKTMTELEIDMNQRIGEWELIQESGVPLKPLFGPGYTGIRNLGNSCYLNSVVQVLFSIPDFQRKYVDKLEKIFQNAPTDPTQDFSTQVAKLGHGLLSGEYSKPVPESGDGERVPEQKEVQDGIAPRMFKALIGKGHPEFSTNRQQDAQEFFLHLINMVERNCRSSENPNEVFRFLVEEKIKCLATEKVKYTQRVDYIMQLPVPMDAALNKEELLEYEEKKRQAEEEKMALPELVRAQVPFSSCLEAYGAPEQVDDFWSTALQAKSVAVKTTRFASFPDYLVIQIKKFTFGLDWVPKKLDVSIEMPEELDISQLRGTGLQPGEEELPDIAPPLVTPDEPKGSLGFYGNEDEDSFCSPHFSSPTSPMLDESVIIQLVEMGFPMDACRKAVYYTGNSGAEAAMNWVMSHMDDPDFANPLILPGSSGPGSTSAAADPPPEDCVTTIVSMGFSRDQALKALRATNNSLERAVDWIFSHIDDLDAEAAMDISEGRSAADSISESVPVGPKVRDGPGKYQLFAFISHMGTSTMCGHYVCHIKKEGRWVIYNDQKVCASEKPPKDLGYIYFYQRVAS

[3] = target: T3, Ubiquitin carboxyl-terminal hydrolase 5 (Homo sapiens) (UniProt P45974); test: Inhibition of wild type human USP5 expressed in Escherichia coli BL21(DE3) using K48-linked tetraubiquitin as substrate assessed as substrate hydrolysis at 10 uM after 15 mins by SDS-PAGE analysis
T3 sequence (whole entry): T2 sequence (P45974 whole entry)

[4] = target: T2, Ubiquitin carboxyl-terminal hydrolase 5; test: Inhibition of wild type human USP5 expressed in Escherichia coli BL21(DE3) using Ub-AMC as substrate after 60 mins by fluorometric analysis
[5] = tested on: T4, Ubiquitin carboxyl-terminal hydrolase 5 (Homo sapiens), P45974 [C335A,H818A]; test: Competitive binding affinity to human USP5 C335A/H818A mutant by SDS-PAGE analysis in presence of biotin-DMT
T4 sequence (whole entry): T2 sequence (P45974 whole entry) with C335A, H818A

[6] = target: Calpain1/2 (Homo sapiens) (UniProt P17655+P07384); test: Inhibition of calpain1/2 (unknown origin) using Suc-LLVY-AMC as substrate at 6.3 uM after 20 mins by fluorometric analysis; type: protein assay
Sequence of Calpain1/2 (Homo sapiens) (P07384 whole entry, looked up): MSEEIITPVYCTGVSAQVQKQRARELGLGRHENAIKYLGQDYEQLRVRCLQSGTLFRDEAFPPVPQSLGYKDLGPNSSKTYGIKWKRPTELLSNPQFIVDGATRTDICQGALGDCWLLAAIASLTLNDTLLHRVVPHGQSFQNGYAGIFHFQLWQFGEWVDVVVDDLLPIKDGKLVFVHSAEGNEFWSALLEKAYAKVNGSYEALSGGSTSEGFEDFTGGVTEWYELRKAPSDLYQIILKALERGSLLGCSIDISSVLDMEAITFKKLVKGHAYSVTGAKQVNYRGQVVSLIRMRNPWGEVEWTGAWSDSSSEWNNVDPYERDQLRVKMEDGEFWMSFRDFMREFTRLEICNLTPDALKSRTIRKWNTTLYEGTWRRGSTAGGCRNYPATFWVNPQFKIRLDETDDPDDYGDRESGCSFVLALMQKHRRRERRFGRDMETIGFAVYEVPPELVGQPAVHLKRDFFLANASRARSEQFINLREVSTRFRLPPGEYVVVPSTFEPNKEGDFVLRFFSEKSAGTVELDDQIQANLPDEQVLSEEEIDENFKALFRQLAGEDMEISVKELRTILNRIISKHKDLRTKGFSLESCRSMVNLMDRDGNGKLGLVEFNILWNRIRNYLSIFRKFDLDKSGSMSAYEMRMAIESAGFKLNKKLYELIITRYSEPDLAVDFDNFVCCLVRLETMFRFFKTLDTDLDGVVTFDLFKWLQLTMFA
Sequence of Calpain1/2 (Homo sapiens) (P17655 whole entry, looked up): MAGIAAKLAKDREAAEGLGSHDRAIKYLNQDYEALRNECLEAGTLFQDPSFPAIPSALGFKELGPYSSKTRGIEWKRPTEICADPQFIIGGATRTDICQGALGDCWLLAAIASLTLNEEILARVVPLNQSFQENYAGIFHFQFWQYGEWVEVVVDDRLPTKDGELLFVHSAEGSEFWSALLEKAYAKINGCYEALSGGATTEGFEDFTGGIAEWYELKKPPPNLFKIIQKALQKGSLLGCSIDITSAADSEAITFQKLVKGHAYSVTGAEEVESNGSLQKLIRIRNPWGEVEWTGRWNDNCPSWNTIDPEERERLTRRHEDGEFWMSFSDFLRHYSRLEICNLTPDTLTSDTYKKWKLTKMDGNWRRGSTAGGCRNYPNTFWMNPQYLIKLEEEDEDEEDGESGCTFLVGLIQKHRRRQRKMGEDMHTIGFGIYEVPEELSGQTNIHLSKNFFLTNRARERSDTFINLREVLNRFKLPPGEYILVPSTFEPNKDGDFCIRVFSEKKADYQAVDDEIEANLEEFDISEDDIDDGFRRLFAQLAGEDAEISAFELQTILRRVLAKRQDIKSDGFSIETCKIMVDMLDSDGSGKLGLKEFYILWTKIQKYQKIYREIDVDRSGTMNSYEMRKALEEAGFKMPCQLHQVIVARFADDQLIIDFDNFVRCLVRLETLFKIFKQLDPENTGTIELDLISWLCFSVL

In the case of O=C(Cc1ccccc1)Oc1c(OC(=O)Cc2ccccc2)c(-c2ccc(O)cc2)c(O)c(O)c1-c1ccc(O)cc1 [VIALININ A], the inhibition [1] is reported as “inactive”, the Ki [2] is reported as 12.5 µM and the inhibition [3] is reported as “Active”. For the same compound, the IC50 [4] was 5.9 µM, the Ki [4] was 4 µM and the Activity [5] was “inactive”. For the same compound, the inhibition [6] was “inactive”.
